# Test results from patent US7067486B2, “Acetylcholinesterase-derived peptides and uses thereof” (priority 1999, dated 2006).
# Tests used:
# CD34^+ cells [1] = test: BrdU incorporation into CD34+ cells (cell proliferation); format: cell-based, human; conditions: peptide 2 nM, cord blood CD34+ cells
# Description: Cell Source: UCB was collected, following informed consent of the parents and with the approval of the Sourasky Medical Center Ethics Committee, as previously described [Grisaru et al. (1999a) Am. J. Obstet. Gynecol, 180, 1240–1243]. Following 1:1 (v/v) dilution in Iscove's modified Dulbecco medium (IMDM, Beit Haemek, Israel), mononuclear cells were separated using 3% gelatin (Difco, Detroit, Mich.) and Ficoll-Hypaque gradients (<1.077 g/ml; Pharmacia, Uppsala, Sweden) [Pick et al. (1998) Br. J. Haematol. 103, 639–50]. CD34^+ cells were enriched using CD34 immunoglobulin-coated magnetic beads (CD34 progenitor cell selection system, Dynal, Norway).CD34^+ cells analysis was performed by flow cytometry (Becton Dickinson Immunocytochemistry System Inc., San Jose, Calif.), using CD34-PE (Becton Dickinson Immunocytometry System, Inc.) and CD45-FITC (Dako, Glostrup, Denmark) monoclonal antibodies. […] Liquid Cultures: UCB CD34^+ cells were set for liquid cultures at a concentration of 10^5/mL in IMDM, containing 10% autologous plasma, 2 mM L-glutamine (Sigma Chemical Co., St Louis, Mo.), penicillin ([…]), streptomycin ([…]), amphotericin B (2×10^−5 M) (Sigma Chemical Co.), and heparin (20 IU/mL, Gibco, Grand Island, N.Y.), all in a fully humidified atmosphere at 37° C. and 5% CO2. The following elements were added where noted: • 1. Hematopoietic growth factors: Interleukin 3 (IL3, 5 ng/mL, Immunex, Seattle, Wash.), interleukin 6 (IL6, 50 ng/mL, R&D Systems, Minneapolis, Minn.), TPO (1 ng/mL, R&D Systems), stem cell factor (SCF, 10 ng/mL, R&D Systems), FLT-3 ligand (FLT3, 50 ng/mL, R&D Systems), granulocyte-macrophage colony stimulating factor (GM-CSF, 50 ng/mL, Biogenesis Ltd, Bournemouth, UK) and combinations of the above, for 24 hr to 28 days (supplemented every 4 days). • 2. […] AChE C-terminal peptides: The following C-terminal peptides of the AChE synaptic (ASP, also denoted SEQ ID: No. 2) and readthrough (ARP, also denoted SEQ ID: No. 1) isoforms were synthesized using a 433A peptide synthesizer (PE Applied Biosystems, Inc., Norwalk, Conn.). • ASP: 1-[…]-40, also denoted as SEQ ID: No. 2. • ARP: 1-[…]-26, also denoted as SEQ ID: No. 1.
# […] Twenty-eight day liquid cultures were sampled every 6–8 days for viable cell counting (using trypan blue dye exclusion), cell phenotyping (CD34^+, CD33^+ and CD41^+ quantification using flow cytometry, with CD34-PE, CD33-FITC (Immunotech/Coulter, Hialeah, Fla.), CD41-FITC (Immunoquality Products, Groningen, Netherlands) and CD45-FITC monoclonal antibodies), and growth of progenitor colony (granulocyte-macrophage and megakaryocytic), using previously described techniques (Pick et al. (1998) id ibid.). […]
# CD34^+ cells [2] = test: Viable cell expansion in CD34+ liquid cultures (trypan blue exclusion); format: cell-based, human
# Description: Cell Source: UCB was collected, following informed consent of the parents and with the approval of the Sourasky Medical Center Ethics Committee, as previously described [Grisaru et al. (1999a) Am. J. Obstet. Gynecol, 180, 1240–1243]. Following 1:1 (v/v) dilution in Iscove's modified Dulbecco medium (IMDM, Beit Haemek, Israel), mononuclear cells were separated using 3% gelatin (Difco, Detroit, Mich.) and Ficoll-Hypaque gradients (<1.077 g/ml; Pharmacia, Uppsala, Sweden) [Pick et al. (1998) Br. J. Haematol. 103, 639–50]. CD34^+ cells were enriched using CD34 immunoglobulin-coated magnetic beads (CD34 progenitor cell selection system, Dynal, Norway).CD34^+ cells analysis was performed by flow cytometry (Becton Dickinson Immunocytochemistry System Inc., San Jose, Calif.), using CD34-PE (Becton Dickinson Immunocytometry System, Inc.) and CD45-FITC (Dako, Glostrup, Denmark) monoclonal antibodies. […] Liquid Cultures: UCB CD34^+ cells were set for liquid cultures at a concentration of 10^5/mL in IMDM, containing 10% autologous plasma, 2 mM L-glutamine (Sigma Chemical Co., St Louis, Mo.), penicillin ([…]), streptomycin ([…]), amphotericin B (2×10^−5 M) (Sigma Chemical Co.), and heparin (20 IU/mL, Gibco, Grand Island, N.Y.), all in a fully humidified atmosphere at 37° C. and 5% CO2. The following elements were added where noted: • 1. Hematopoietic growth factors: Interleukin 3 (IL3, 5 ng/mL, Immunex, Seattle, Wash.), interleukin 6 (IL6, 50 ng/mL, R&D Systems, Minneapolis, Minn.), TPO (1 ng/mL, R&D Systems), stem cell factor (SCF, 10 ng/mL, R&D Systems), FLT-3 ligand (FLT3, 50 ng/mL, R&D Systems), granulocyte-macrophage colony stimulating factor (GM-CSF, 50 ng/mL, Biogenesis Ltd, Bournemouth, UK) and combinations of the above, for 24 hr to 28 days (supplemented every 4 days). • 2. Endothlial Growth factors: Epidermal growth factor (EGF 10 ng/ml, Sigma Chemical Co.), basic Fibroblast growth factor (bFGF 20 ng/ml, Sigma Chemical Co.) incubated in a serum free medium (SFM) for 48 hr. • 3. […] AChE C-terminal peptides: The following C-terminal peptides of the AChE synaptic (ASP, also denoted SEQ ID: No. 2) and readthrough (ARP, also denoted SEQ ID: No. 1) isoforms were synthesized using a 433A peptide synthesizer (PE Applied Biosystems, Inc., Norwalk, Conn.). • ASP: 1-[…]-40, also denoted as SEQ ID: No. 2. • ARP: 1-[…]-26, also denoted as SEQ ID: No. 1. […]
substance,measurement,setting,value
ASP (DTLDEAERQWKAEFHRWSSYMVHWKNQFDHYSKQDRCSDL),BrdU incorporation values,CD34^+ cells [1]; 16 hrs post-plating,0.095 ± 0.004
same,BrdU incorporation values,CD34^+ cells [1]; 24 hrs post-plating,0.182 ± 0.018
same,BrdU incorporation values,CD34^+ cells [1]; 36 hrs post-plating,0.260 ± 0.022
same,Total viable cells,"CD34^+ cells [2]; day 14, seeded at 50,000 cells/well, ARP 2 nM, cortisol 1.2 μM, ASP 2 nM, SCF 50 ng/ml, AS1 20 pM, PBAN 2 nM",100.0 cells per culture × 10^−3
same,promotion of cell expansion compared with ARP,"CD34^+ cells [2]; similar doses, alone or with cytokines, 2 weeks",less effective than ARP
